The values below come from article PMC9474448, “Assembly of transmembrane pores from mirror-image peptides” (Nature Communications, 2022).

Holding throughout (type): binding
The subject of assay [1] is DpPorA. Description: Single-molecule sensing: analyte blocking of single DpPorA pore. The conditions noted are these: 1 M KCl; for ion current blockage of single DpPorA (in words): 10 mM HEPES pH 7.4, am8γCD 10 μM trans at positive voltages, γCD, s8γCD 100 μM cis, D9, R4 10 μM cis. As for the experimental part: (§1) Electrical recordings were carried out by using bilayers of 1,2-diphytanoyl-sn-glycero-3-phosphocholine (DPhPC, Avanti Polar Lipids) formed across ~100 µm in diameter polytetrafluoroethylene (Teflon) film of 25 µm thick (Goodfellow, Cambridge)[59]. The Teflon film is sandwiched between two sides of the Delrin bilayer chamber, called cis and trans compartments (500 µL each). Solvent-free bilayers were formed by pre-treating the aperture with hexadecane in n-pentane (1 μL, 5 mg mL^−1) on each side of the bilayer chamber. Then the bilayer chamber was filled with the electrolyte solution (1 M KCl, 10 mM HEPES, pH 7.4) and DPhPC in n-pentane (2 μL, 5 mg mL^−1) was added to both sides of the chamber. After 5 min, a bilayer was formed when the electrolyte was raised, bringing the two lipid surface monolayers together at the aperture. pPorA pores were formed by adding self-assembled preoligomers extracted from the SDS PAGE gel to the cis side of the chamber. The cWza pores were formed by adding peptide solution in 0.1% DDM (1 µL, 100 µg mL^−1) to the cis side. The cis chamber was connected to the grounded electrode and the trans chamber was attached to the working electrode. A potential difference was applied through a pair of Ag/AgCl electrodes, set in 3% agarose containing 3.0 M KCl. We investigated the ion selectivity of pores using the KCl salt gradient applied across the bilayer chambers (1 M cis /0.15 M trans). The reverse potential was determined to calculate the permeability ratio of K^+ and Cl^- ions across the pore (Supplementary text). The current was amplified using an Axopatch 200B amplifier, digitized with a Digidata 1550B digitizer (pCLAMP 11.0, Molecular Devices, CA) with a low-pass filter frequency of 10 kHz and a sampling frequency of 50 kHz or a low-pass filter frequency of 2 kHz and a sampling frequency of 10 kHz. Single-channel data analysis was conducted using Clampfit 11.0 (Molecular devices, CA). Histogram plotting were performed in OriginPro 2022 (OriginLab).

Assay [2] concerns LpPorA. Description: Single-channel analyte blocking of LpPorA pore. The conditions noted are these: +50 mV; am8γCD 1 µM trans; 1 M KCl; n = 3. As for the experimental part: as §1, with “A potential difference was applied through a pair of Ag/AgCl electrodes, set in 3% agarose containing 3.0 M KCl. We investigated the ion selectivity of pores using the KCl salt gradient applied across the bilayer chambers (1 M cis /0.15 M trans).” left out, “The current was amplified using an Axopatch 200B amplifier, digitized with a Digidata 1550B digitizer (pCLAMP 11.0, Molecular Devices, CA) with a low-pass filter frequency of 10 kHz and a sampling frequency of 50 kHz or a low-pass filter frequency of 2 kHz and a sampling frequency of 10 kHz. Single-channel data analysis was conducted using Clampfit 11.0 (Molecular devices, CA). Histogram plotting were performed in OriginPro 2022 (OriginLab).” left out

The test system of assay [3] is DcWza. Description: Single-channel analyte blocking of DcWza pore. The conditions noted are these: 100 μM, trans; +100 mV; 1 M KCl, 10 mM HEPES, pH 7.4. As for the experimental part: as §1, with “A potential difference was applied through a pair of Ag/AgCl electrodes, set in 3% agarose containing 3.0 M KCl. We investigated the ion selectivity of pores using the KCl salt gradient applied across the bilayer chambers (1 M cis /0.15 M trans).” left out, “The current was amplified using an Axopatch 200B amplifier, digitized with a Digidata 1550B digitizer (pCLAMP 11.0, Molecular Devices, CA) with a low-pass filter frequency of 10 kHz and a sampling frequency of 50 kHz or a low-pass filter frequency of 2 kHz and a sampling frequency of 10 kHz. Single-channel data analysis was conducted using Clampfit 11.0 (Molecular devices, CA). Histogram plotting were performed in OriginPro 2022 (OriginLab).” left out

Take `NCC1OC2OC3C(CN)OC(OC4C(CN)OC(OC5C(CN)OC(OC6C(CN)OC(OC7C(CN)OC(OC8C(CN)OC(OC9C(CN)OC(OC1C(O)C2O)C(O)C9O)C(O)C8O)C(O)C7O)C(O)C6O)C(O)C5O)C(O)C4O)C(O)C3O` (centres unmarked) [am8γCD]: in assay [1] (10 μM analyte, cis, negative voltages), the “pore block (closure) of DpPorA (S)” value stood at 100%. The “ion current blockage of single DpPorA (in words)” value in assay [1] was “complete pore closure”. For the same compound, in assay [2], the “mean blockage time (τoff)” value worked out at 0.22 ± 0.03 ms. The “ion current blockage of DcWza in the open state (in words)” value in assay [3] is given as “no blockages were observed”.
Consider `OC[C@H]1O[C@@H]2O[C@H]3[C@H](O)[C@@H](O)[C@@H](O[C@H]4[C@H](O)[C@@H](O)[C@@H](O[C@H]5[C@H](O)[C@@H](O)[C@@H](O[C@H]6[C@H](O)[C@@H](O)[C@@H](O[C@H]7[C@H](O)[C@@H](O)[C@@H](O[C@H]8[C@H](O)[C@@H](O)[C@@H](O[C@H]9[C@H](O)[C@@H](O)[C@@H](O[C@H]1[C@H](O)[C@H]2O)O[C@@H]9CO)O[C@@H]8CO)O[C@@H]7CO)O[C@@H]6CO)O[C@@H]5CO)O[C@@H]4CO)O[C@@H]3CO` [γCD], for which the “ion current blockage of single DpPorA (in words)” value in assay [1] is recorded as “did not produce any current blockages”.
